Laboratory results taken from patent publication US20200390100A1, “SUBSTITUTED N-HETEROCYCLYL- AND N-HETEROARYL-TETRAHYDROPYRIMIDINONES AND THE SALTS THEREOF, AND THE USE OF SAME AS HERBICIDAL ACTIVE SUBSTANCES” (Bayer Aktiengesellschaft, priority 2017, published 2020).

What was measured:
Type in all cases: in vivo
[1] = system: Viola tricolor; assay: Post-emergence herbicidal action, greenhouse, 320 g/ha; conditions: application rate 320 g/ha, rated visually after about 3 weeks vs untreated controls
In short: (§1)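 Plants treated post-emergence at the one-leaf stage, 2 to 3 weeks after sowing in sandy loam, with WP or EC formulations plus 0.5% additive at 320 g/ha. Visual rating about 3 weeks later versus untreated controls (100% = dead, 0% = like control).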

[2] = system: Amaranthus retroflexus; assay: as above; conditions: application rate 320 g/ha, rated visually after about 3 weeks vs untreated controls
In short: as §1

[3] = system: Matricaria inodora; assay: as above; conditions: application rate 320 g/ha, rated visually after about 3 weeks vs untreated controls
In short: as §1

[4] = system: Setaria viridis; assay: as above; conditions: application rate 320 g/ha, rated visually after about 3 weeks vs untreated controls
In short: as §1

[5] = system: Stellaria media; assay: as above; conditions: application rate 320 g/ha, rated visually after about 3 weeks vs untreated controls
In short: as §1

[6] = system: Abutilon theophrasti; assay: as above; conditions: application rate 320 g/ha, rated visually after about 3 weeks vs untreated controls
In short: as §1

[7] = system: Hordeum murinum; assay: as above; conditions: application rate 320 g/ha, rated visually after about 3 weeks vs untreated controls
In short: as §1

[8] = system: Pharbitis purpurea; assay: as above; conditions: application rate 320 g/ha, rated visually after about 3 weeks vs untreated controls
In short: as §1

[9] = system: Polygonum convolvulus; assay: as above; conditions: application rate 320 g/ha, rated visually after about 3 weeks vs untreated controls
In short: as §1

[10] = system: Viola tricolor; assay: Pre-emergence herbicidal action, greenhouse, 320 g/ha; conditions: application rate 320 g/ha, Table B8
In short: (§2)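 Visual % damage versus untreated pots was read about 3 weeks after treatment, where 0% means growth as in controls and 100% means dead plants. Compounds were applied as WP or EC in water plus 0.5% additive onto the covering soil over freshly sown seeds.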

[11] = system: Amaranthus retroflexus; assay: as above; conditions: application rate 320 g/ha, scored visually after about 3 weeks vs untreated controls
In short: as §2

[12] = system: Echinochloa crus-galli; assay: as above; conditions: application rate 320 g/ha, scored visually after about 3 weeks vs untreated controls
In short: as §2

[13] = system: Matricaria inodora; assay: as above; conditions: application rate 320 g/ha, scored visually after about 3 weeks vs untreated controls
In short: as §2

[14] = system: Setaria viridis; assay: as above; conditions: application rate 320 g/ha, Table B11
In short: as §2

[15] = system: Stellaria media; assay: as above; conditions: application rate 320 g/ha, scored visually after about 3 weeks vs untreated controls
In short: as §2

[16] = system: Abutilon theophrasti; assay: as above; conditions: application rate 320 g/ha, scored visually after about 3 weeks vs untreated controls
In short: as §2

[17] = system: Hordeum murinum; assay: as above; conditions: application rate 320 g/ha, Table B14
In short: as §2

[18] = system: Pharbitis purpurea; assay: as above; conditions: application rate 320 g/ha, Table B12
In short: as §2

[19] = system: Alopecurus myosuroides; assay: as above; conditions: application rate 320 g/ha, scored visually after about 3 weeks vs untreated controls
In short: as §2

[20] = system: Polygonum convolvulus; assay: as above; conditions: application rate 320 g/ha, scored visually after about 3 weeks vs untreated controls
In short: as §2

[21] = system: Veronica persica; assay: as above; conditions: application rate 320 g/ha, Table B13
In short: as §2

[22] = system: Avena fatua; assay: as above; conditions: application rate 320 g/ha, scored visually after about 3 weeks vs untreated controls
In short: as §2

[23] = system: Amaranthus retroflexus; assay: Herbicidal pre-emergence action (Part 2), 1280 g/ha; conditions: application rate 1280 g/ha, scored visually after about 3 weeks, Table D6
In short: (§3)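 Sow seeds in sandy loam, cover with soil. Apply compound (WP or EC, aqueous, 0.5% additive, 600 L/ha) onto covering soil. Grow in greenhouse about 3 weeks, then rate visually as % effect against untreated controls.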

[24] = system: Echinochloa crus-galli; assay: as above; conditions: application rate 1280 g/ha, scored visually after about 3 weeks, Table D1
In short: as §3

[25] = system: Matricaria inodora; assay: as above; conditions: application rate 1280 g/ha, scored visually after about 3 weeks, Table D7
In short: as §3

[26] = system: Setaria viridis; assay: as above; conditions: application rate 1280 g/ha, scored visually after about 3 weeks, Table D4
In short: as §3

[27] = system: Poa annua; assay: as above; conditions: application rate 1280 g/ha, scored visually after about 3 weeks, Table D3
In short: as §3

[28] = system: Stellaria media; assay: as above; conditions: application rate 1280 g/ha, scored visually after about 3 weeks, Table D8
In short: as §3

[29] = system: Abutilon theophrasti; assay: as above; conditions: application rate 1280 g/ha, scored visually after about 3 weeks, Table D5
In short: as §3

[30] = system: Lolium rigidum; assay: as above; conditions: application rate 1280 g/ha, scored visually after about 3 weeks, Table D2
In short: as §3

[31] = system: Digitaria sanguinalis; assay: Post-emergence herbicidal action, greenhouse, 320 g/ha; conditions: application rate 320 g/ha, rated visually after about 3 weeks vs untreated controls
In short: as §1

CN1CCC(OC(=O)C(C)(C)C)N(c2cc(C(C)(C)C)on2)C1=O (stereo not shown) [I.6-162]
90%: Hordeum murinum (efficacy in %) [7] | Pharbitis purpurea (efficacy in %) [8] | Hordeum murinum (efficacy in %) [17] | Pharbitis purpurea (efficacy in %) [18] | Alopecurus myosuroides (efficacy in %) [19] | Polygonum convolvulus (efficacy in %) [20] | Avena fatua (efficacy in %) [22]
100%: Viola tricolor (efficacy in %) [1] | Matricaria inodora (efficacy in %) [3] | Setaria viridis (efficacy in %) [4] | Stellaria media (efficacy in %) [5] | Abutilon theophrasti (efficacy in %) [6] | Polygonum convolvulus (efficacy in %) [9] | Viola tricolor (efficacy in %) [10] | Amaranthus retroflexus (efficacy in %) [11] | Echinochloa crus-galli (efficacy in %) [12] | Matricaria inodora (efficacy in %) [13] | Setaria viridis (efficacy in %) [14] | Stellaria media (efficacy in %) [15] | Abutilon theophrasti (efficacy in %) [16] | Veronica persica (efficacy in %) [21]
80%: Amaranthus retroflexus (efficacy in %) [2]

CCC(=O)OC1CC2CCCN2C(=O)N1c1cc(C(C)(C)C)on1 (stereo not shown) [I.123-162]
80%: Matricaria inodora (efficacy in %) [3]
100%: Amaranthus retroflexus [23] | Echinochloa crus-galli [24] | Matricaria inodora [25] | Setaria viridis [26] | Poa Annua [27] | Stellaria media [28] | Abutilon theophrasti [29] | Lolium rigidum [30] | Digitaria sanguinalis (efficacy in %) [31] | Viola tricolor (efficacy in %) [1] | Amaranthus retroflexus (efficacy in %) [2] | Stellaria media (efficacy in %) [5] | Abutilon theophrasti (efficacy in %) [6] | Polygonum convolvulus (efficacy in %) [9]
